According to patent publication US4010268A, “Derivatives of hexahydrodibenzofuran-3-one, their preparation and use in pharmaceutical compositions” (Roussel-UCLAF, priority 1974, dated 1977):
Where a name gives a salt, the structure may show the parent alone.

Legend:
[1] = Acute toxicity, oral; details: guinea pig, in vivo; guinea pigs, increasing oral dose
Method: The acute toxicity of some of compounds of the invention was determined on guinea pigs which had received an increasing oral dose of the compound.

[2] = tested on: cough experimentally induced by electric stimulation of the vagus nerve in the guinea pig; assay: Antitussive activity: cough induced by electric stimulation of the vagus nerve; assay type: in vivo; details: for inhibition in vivo at 100 mg/kg / ED50: Cavia porcellus; for inhibition in vivo at 100 mg/kg: 100 mg/kg oral, stimulus 20 and 40 minutes after administration, 6 negative responses = 100%, groups of 6 guinea pigs, read-out: Percentage cough inhibition; for ED50: guinea pig, oral, vagus nerve stimulation, read-out: ED50 (dose which reduces the number of coughs by 50%); for antitussive activity (in words): conclusion from Table 3 results
Method: The test consists of stimulating the vagus nerve of the guinea pig and repeating the stimulus 20 and 40 minutes after oral administration of 100 mg/kg of the product under test. 6 Negative responses (3 after 20 minutes and 3 after 40 minutes) represent a cough inhibition of 100%. The test was carried out in groups of 6 animals against groups of control animals (undosed).
In addition, for certain compounds the ED50 was also determined, i.e. that dose which reduces the number of coughs by 50%.

Row | SMILES | LD50 [1] | inhibition in vivo at 100 mg/kg [2] | ED50 [2] | antitussive activity (in words) [2]
1 | Cc1ccc2c(c1)[C@@]1(C)CCC(=O)[C@@H](NC(=O)CCN3CCCCC3)[C@H]1O2 (relative stereo) [Example 12] | ~400 mg/kg | 46% | – | –
2 | Cc1ccc2c(c1)[C@@]1(C)CCC(=O)[C@@H](NC(=O)CCCN(C)C)[C@H]1O2 (relative stereo) [Example 23] | – | 67% | – | –
3 | Cc1ccc2c(c1)[C@@]1(C)CCC(=O)[C@@H](NC(=O)CCCCN(C)C)[C@H]1O2 (relative stereo) [Example 24, 8,9bβ-dimethyl-1,2,3,4,4aβ,9b-hexahydro-4α-[5-N,N-dimethylamino-valeramido]-dibenzofuran-3-one] | – | 83% | 71 mg/kg | important antitussive activity
4 | Cc1ccc2c(c1)[C@@]1(C)CCC(=O)[C@@H](NC(=O)CCCN3CCN(C)CC3)[C@H]1O2 (relative stereo) [Example 22, 8,9bβ-dimethyl-1,2,3,4,4aβ,9b-hexahydro-4α-[4-(4-methylpiperazin-1-yl)-butyramido]-dibenzofuran-3-one] | – | 72% | – | –
5 | Cc1ccc2c(c1)[C@@]1(C)CCC(=O)[C@@H](NC(=O)CN3CCCC3)[C@H]1O2 (relative stereo) [Example 7] | ~800 mg/kg | 17% | – | –
6 | Cc1ccc2c(c1)[C@@]1(C)CCC(=O)[C@@H](NC(=O)CCN3CCN(C)CC3)[C@H]1O2 (relative stereo) [Example 1, 8,9bβ-dimethyl-1,2,3,4,4aβ,9b-hexahydro-4α-[3-(4-methylpiperazin-1-yl)-propionamido]-dibenzofuran-3-one dihydrochloride] | 1480 mg/kg | 100% | 32.5 mg/kg | important antitussive activity
7 | CCN1CCN(CCC(=O)N[C@@H]2C(=O)CC[C@]3(C)c4cc(C)ccc4O[C@H]23)CC1 (relative stereo) [Example 21] | > 1000 mg/kg | – | – | –
8 | Cc1ccc2c(c1)[C@@]1(C)CCC(=O)[C@@H](NC(=O)CCN(C)CCN(C)C)[C@H]1O2 (relative stereo) [Example 18] | > 1000 mg/kg | 50% | – | –
9 | CCN(CC(=O)N[C@@H]1C(=O)CC[C@]2(C)c3cc(C)ccc3O[C@H]12)Cc1ccccc1 (relative stereo) [Example 8] | > 800 mg/kg | – | – | –
10 | Cc1ccc2c(c1)[C@@]1(C)CCC(=O)[C@@H](NC(=O)CCN3CCCC3)[C@H]1O2 (relative stereo) [Example 11] | ~600 mg/kg | 44% | – | –
11 | CCN(CC)CCC(=O)N[C@@H]1C(=O)CC[C@]2(C)c3cc(C)ccc3O[C@H]12 (relative stereo) [Example 19] | – | 33% | – | –
12 | CCOC(=O)N1CCN(CCC(=O)N[C@@H]2C(=O)CC[C@]3(C)c4cc(C)ccc4O[C@H]23)CC1 (relative stereo) [Example 14] | > 1000 mg/kg | 33% | – | –
13 | Cc1ccc2c(c1)[C@@]1(C)CCC(=O)[C@@H](NC(=O)CCN3CCNCC3)[C@H]1O2 (relative stereo) [Example 13, 8,9bβ-1,2,3,4,4aβ,9b-hexahydro-4α-[3-piperazinopropionamido]-dibenzofuran-3-one] | > 1000 mg/kg | 75% | – | –
14 | Cc1ccc2c(c1)[C@@]1(C)CCC(=O)[C@@H](NC(=O)CCN(C)C)[C@H]1O2 (relative stereo) [Example 10, 8,9bβ-dimethyl-1,2,3,4,4aβ,9b-hexahydro-4α-[3-N,N-dimethylamino-propionamido]-dibenzofuran-3-one] | 500 to 1000 mg/kg | 89% | – | important antitussive activity
15 | Cc1ccc2c(c1)[C@@]1(C)CCC(=O)[C@@H](NC(=O)CCN3CCOCC3)[C@H]1O2 (relative stereo) [Example 9] | – | 39% | – | –
16 | Cc1ccc2c(c1)[C@@]1(C)CCC(=O)[C@@H](NC(=O)CCCCCN(C)C)[C@H]1O2 (relative stereo) [Example 25] | – | 25% | – | –
17 | Cc1ccc2c(c1)[C@@]1(C)CCC(=O)[C@@H](NC(=O)CN3CCN(C)CC3)[C@H]1O2 (relative stereo) [Example 4] | > 800 mg/kg | 43% | – | –
18 | Cc1ccc2c(c1)[C@@]1(C)CCC(=O)[C@@H](NC(=O)CCN3CCN(c4ccccc4)CC3)[C@H]1O2 (relative stereo) [Example 15] | – | 54% | – | –
19 | Cc1ccc2c(c1)[C@@]1(C)CCC(=O)[C@@H](NC(=O)CCN3CCN(Cc4ccccc4)CC3)[C@H]1O2 (relative stereo) [Example 17] | > 1000 mg/kg | 33% | – | –
20 | CC(=O)N1CCN(CCC(=O)N[C@@H]2C(=O)CC[C@]3(C)c4cc(C)ccc4O[C@H]23)CC1 (relative stereo) [Example 20] | > 1000 mg/kg | 33% | – | –
21 | Cc1ccc2c(c1)[C@@]1(C)CCC(=O)[C@@H](NC(=O)CCN3CCN(CCO)CC3)[C@H]1O2 (relative stereo) [Example 16] | – | 17% | – | –
